Laboratory results from patent publication US8017656B2, “Organic sulfur compounds and use thereof” (Sumitomo Chemical Company, Limited, priority 2005, dated 2011).
Where two headings read alike, the source gives them in different places.

Columns and labels:
Assay type in all cases: in vivo
Blattella germanica = test: Test Example 3: filter paper/sucrose bait test against German cockroach imagoes; settings: Blattella germanica, 144 h, read-out: rate of dead pests
Experimental: (§1) On the bottom of a polyethylene cup having a diameter of 5.5 cm, a filter paper having the same diameter was laid, and 0.7 ml of the above test solution was added dropwise on the filter paper, followed by putting 30 mg of sucrose on it uniformly as a bait. Two male Blattella germanica imagoes were set free in the polyethylene cup and covered it with a lid. After 6 days, the number of surviving and dead Blattella germanica was examined and the rate of dead pests was calculated.

Musca domestica = test: Test Example 2: filter paper/sucrose bait test against housefly imagoes; settings: read-out: rate of dead pests
Experimental: as §1, with “Ten female Musca domestica” for “Two male Blattella germanica”, “24 hours,” for “6 days,”, “Musca domestica” for “Blattella germanica”

Culex pipiens pallens = test: Test Example 4: mosquito larvae test in treated water; settings: 24 h, read-out: rate of dead pests
Experimental: 0.7 ml of above test solution was added to 100 ml of ion exchanged water (active ingredient concentration: 3.5 ppm). Twenty last-instar larvae of Culex pipiens pallens were set free in the solution. After one day, the number of surviving and dead Culex pipiens pallens was examined and the rate of dead pests was calculated.

[1] = 500 ppm test solution, 0.7 ml on filter paper with 30 mg sucrose, two male imagoes, after 6 days
[2] = 500 ppm test solution, 0.7 ml on filter paper with 30 mg sucrose, ten female imagoes, after 24 hours
[3] = active ingredient concentration 3.5 ppm in water, twenty last-instar larvae, after one day

| Structure (SMILES) | pest or weed control at 500 ppm (Blattella germanica; [1]) | pest or weed control at 500 ppm (Musca domestica; [2]) | pest or weed control at 3.5 ppm (Culex pipiens pallens; [3]) | pest or weed control at 500 ppm (Blattella germanica) | pest or weed control at 500 ppm (Musca domestica; 24 h) | pest or weed control at 3.5 ppm (Culex pipiens pallens) |
| --- | --- | --- | --- | --- | --- | --- |
| COC(=O)C(Cl)(CCC(F)(F)C(F)(F)F)S(=O)(=O)CCC(F)(F)C(F)(F)F (stereo not drawn) [(88)] | 100% | ≥ 70% | ≥ 90% |  |  |  |
| NC(=O)C(Cl)(CCC(F)(F)F)S(=O)(=O)CCC(F)(F)C(F)(F)F (stereo not drawn) [(94)] | 100% | ≥ 70% | ≥ 90% |  |  |  |
| N#CC(CC(F)(F)C(F)(F)C(F)(F)F)S(=O)(=O)CCC(F)(F)C(F)(F)F (stereo not drawn) [(9)] |  |  |  | 100% | ≥ 70% | ≥ 90% |
| N#CC(CCC(F)(F)F)S(=O)(=O)CCC(F)(F)F (stereo not drawn) [(1)] | 100% | ≥ 70% | ≥ 90% |  |  |  |
| COC(=O)C(C)(CCC(F)(F)C(F)(F)F)S(=O)(=O)CCC(F)(F)C(F)(F)F (stereo not drawn) [(30)] | 100% | ≥ 70% | ≥ 90% |  |  |  |
| NC(=O)C(F)(CCC(F)(F)C(F)(F)F)S(=O)(=O)CCC(F)(F)C(F)(F)C(F)(F)F (stereo not drawn) [(67)] |  |  |  | 100% | ≥ 70% | ≥ 90% |
| COC(=O)C(F)(CCC(F)(F)C(F)(F)F)S(=O)(=O)CCC(F)(F)F (stereo not drawn) [(29)] | 100% | ≥ 70% | ≥ 90% |  |  |  |
| NC(=O)C(CCC(F)(F)C(F)(F)F)S(=O)(=O)CCC(F)(F)F (stereo not drawn) [(31)] | 100% | ≥ 70% | ≥ 90% |  |  |  |
| CCCC(C#N)(CCC(F)(F)C(F)(F)F)S(=O)(=O)CCC(F)(F)F (stereo not drawn) [(16)] | 100% | ≥ 70% | ≥ 90% |  |  |  |
| CN(C)C(=O)C(C)(CCC(F)(F)C(F)(F)F)S(=O)(=O)CCC(F)(F)F (stereo not drawn) [(36)] | 100% | ≥ 70% | ≥ 90% |  |  |  |
| N#CC(CC(F)(F)C(F)(F)F)S(=O)(=O)CCC(F)(F)F (stereo not drawn) [(2)] | 100% | ≥ 70% | ≥ 90% |  |  |  |
| COC(=O)C(C)(CCC(F)(F)C(F)(F)C(F)(F)F)S(=O)(=O)CCC(F)(F)C(F)(F)F (stereo not drawn) [(52)] |  |  |  | 100% | ≥ 70% | ≥ 90% |
| COC(=O)C(F)(CCC(F)(F)C(F)(F)F)S(=O)(=O)CCC(F)(F)C(F)(F)F (stereo not drawn) [(72)] | 100% | ≥ 70% | ≥ 90% |  |  |  |
| N#CC(F)(CCC(F)(F)C(F)(F)F)S(=O)(=O)CCC(F)(F)F (stereo not drawn) [(20)] | 100% | ≥ 70% | ≥ 90% |  |  |  |
| NC(=O)C(F)(CCC(F)(F)C(F)(F)C(F)(F)F)S(=O)(=O)CCC(F)(F)F (stereo not drawn) [(91)] |  |  |  | 100% | ≥ 70% | ≥ 90% |
| N#CC(CCC(F)(F)C(F)(F)C(F)(F)F)S(=O)(=O)CCC(F)(F)F (stereo not drawn) [(5)] |  |  |  | 100% | ≥ 70% | ≥ 90% |
| NC(=O)C(Cl)(CCC(F)(F)C(F)(F)C(F)(F)F)S(=O)(=O)CCC(F)(F)C(F)(F)F (stereo not drawn) [(97)] |  |  |  | 100% | ≥ 70% | ≥ 90% |
| CC(CCC(F)(F)C(F)(F)F)(C(N)=S)S(=O)(=O)CCC(F)(F)F (stereo not drawn) [(49)] | 100% | ≥ 70% | ≥ 90% |  |  |  |
| CC(CCC(F)(F)C(F)(F)F)(C(N)=O)S(=O)(=O)CCC(F)(F)C(F)(F)F (stereo not drawn) [(61)] | 100% | ≥ 70% | ≥ 90% |  |  |  |

| Structure (SMILES) | pest or weed control at 500 ppm (Blattella germanica; [1]) | pest or weed control at 500 ppm (Musca domestica; [2]) | pest or weed control at 3.5 ppm (Culex pipiens pallens; [3]) | pest or weed control at 500 ppm (Blattella germanica) | pest or weed control at 500 ppm (Musca domestica; 24 h) | pest or weed control at 3.5 ppm (Culex pipiens pallens) |
| --- | --- | --- | --- | --- | --- | --- |
| CC(C#N)(CCC(F)(F)C(F)(F)F)S(=O)(=O)CCC(F)(F)C(F)(F)C(F)(F)F (stereo not drawn) [(14)] |  |  |  | 100% | ≥ 70% | ≥ 90% |
| CC(C#N)(CCCC(F)(F)F)S(=O)(=O)CCC(F)(F)F (stereo not drawn) [(45)] | 100% | ≥ 70% | ≥ 90% |  |  |  |
| CCOC(=O)C(C)(CCC(F)(F)C(F)(F)F)S(=O)(=O)CCC(F)(F)F (stereo not drawn) [(46)] | 100% | ≥ 70% | ≥ 90% |  |  |  |
| CC(C#N)(CCC(F)(F)C(F)(F)F)S(=O)(=O)CCC(F)(F)C(F)(F)F (stereo not drawn) [(13)] | 100% | ≥ 70% | ≥ 90% |  |  |  |
| COC(=O)C(Cl)(CCC(F)(F)C(F)(F)C(F)(F)C(F)(F)F)S(=O)(=O)CCC(F)(F)F (stereo not drawn) [(86)] |  |  |  | 100% | ≥ 70% | ≥ 90% |
| NC(=O)C(Cl)(CCCCC(F)(F)F)S(=O)(=O)CCC(F)(F)F (stereo not drawn) [(100)] | 100% | ≥ 70% | ≥ 90% |  |  |  |
| COC(=O)C(Cl)(CCCC(F)(F)C(F)(F)F)S(=O)(=O)CCC(F)(F)F (stereo not drawn) [(102)] | 100% | ≥ 70% | ≥ 90% |  |  |  |
| COC(=O)C(C)(CCC(F)(F)C(F)(F)F)S(=O)(=O)CCC(F)(F)F (stereo not drawn) [(26)] | 100% | ≥ 70% | ≥ 90% |  |  |  |
| N#CC(Cl)(CCC(F)(F)C(F)(F)F)S(=O)(=O)CCC(F)(F)F (stereo not drawn) [(21)] | 100% | ≥ 70% | ≥ 90% |  |  |  |
| CCC(C#N)(CCC(F)(F)C(F)(F)F)S(=O)(=O)CCC(F)(F)F (stereo not drawn) [(15)] | 100% | ≥ 70% | ≥ 90% |  |  |  |
| NC(=O)C(Cl)(CCC(F)(F)C(F)(F)F)S(=O)(=O)CCC(F)(F)C(F)(F)F (stereo not drawn) [(89)] | 100% | ≥ 70% | ≥ 90% |  |  |  |
| CC(CCC(F)(F)C(F)(F)F)(C(N)=O)S(=O)(=O)CCC(F)(F)F (stereo not drawn) [(34)] | 100% | ≥ 70% | ≥ 90% |  |  |  |
| N#CC(CC(F)(F)C(F)(F)C(F)(F)F)S(=O)(=O)CCC(F)(F)F (stereo not drawn) [(4)] |  |  |  | 100% | ≥ 70% | ≥ 90% |
| NC(=O)C(Cl)(CCC(F)(F)C(F)(F)C(F)(F)C(F)(F)F)S(=O)(=O)CCC(F)(F)F (stereo not drawn) [(87)] |  |  |  | 100% | ≥ 70% | ≥ 90% |
| CN(C)C(=O)C(F)(CCC(F)(F)C(F)(F)F)S(=O)(=O)CCC(F)(F)F (stereo not drawn) [(74)] | 100% | ≥ 70% | ≥ 90% |  |  |  |
| COC(=O)C(C)(CCC(F)(F)C(F)(F)F)SCCC(F)(F)F (stereo not drawn) [(68)] | 100% | ≥ 70% | ≥ 90% |  |  |  |
| COC(=O)C(F)(CCC(F)(F)C(F)(F)C(F)(F)F)S(=O)(=O)CCC(F)(F)F (stereo not drawn) [(90)] |  |  |  | 100% | ≥ 70% | ≥ 90% |
| CC(CCC(F)(F)C(F)(F)C(F)(F)F)(C(N)=O)S(=O)(=O)CCC(F)(F)C(F)(F)F (stereo not drawn) [(56)] |  |  |  | 100% | ≥ 70% | ≥ 90% |
